Molecules are shown by their SMILES.

The target of the test is Dihydroorotate dehydrogenase (Helicobacter pylori). As to the kind of experiment: Inhibition of dihydroorotate dehydrogenase (DHODase) of Helicobacter pylori.
In turn, `Cc1ccc(CNC(=O)c2cc(C(=O)Nc3ccccc3)n(-c3ccc(Cl)cc3)n2)cc1` [1-(4-Chloro-phenyl)-1H-pyrazole-3,5-dicarboxylic acid 3-(4-methyl-benzylamide) 5-phenylamide] yielded a Ki of 32 nM.
Regarding `CC(C)CNC(=O)c1cc(C(=O)NCc2ccccc2)nn1-c1ccc(Cl)cc1` [1-(4-Chloro-phenyl)-1H-pyrazole-3,5-dicarboxylic acid 3-benzylamide 5-(isobutyl-amide)], the inhibition constant Ki turned out to be 91 nM.
In the case of `NC(=O)c1ccc(NC(=O)c2cc(C(=O)NCc3ccccc3)nn2-c2ccc(Cl)cc2)cc1` [1-(4-Chloro-phenyl)-1H-pyrazole-3,5-dicarboxylic acid 3-benzylamide 5-[(4-carbamoyl-phenyl)-amide]] it was 6 nM; in that of `O=C(NCc1cccnc1)c1cc(C(=O)Nc2ccc(N3CCCCC3)cc2)n(-c2ccc(Cl)cc2)n1` [1-(4-Chloro-phenyl)-1H-pyrazole-3,5-dicarboxylic acid 5-[(4-piperidin-1-yl-phenyl)-amide] 3-[(pyridin-3-ylmethyl)-amide]], 8 nM.
Turning to `O=C(NCc1cccnc1)c1cc(C(=O)Nc2ccccc2)n(-c2ccc(Cl)cc2)n1` [1-(4-Chloro-phenyl)-1H-pyrazole-3,5-dicarboxylic acid 5-phenylamide 3-[(pyridin-3-ylmethyl)-amide]], the inhibitory constant (Ki) came out at 4 nM. Against the preceding compound, the Ki is about 2-fold lower.
In the case of `COc1ccc(-n2nc(C(=O)NCC(C)C)cc2C(=O)Nc2ccc(C(=O)N3CCCC3)cc2)cc1` [1-(4-Methoxy-phenyl)-1H-pyrazole-3,5-dicarboxylic acid 3-(isobutyl-amide) 5-{[4-(pyrrolidine-1-carbonyl)-phenyl]-amide}] it was 138 nM; in that of `COc1ccc(-n2nc(C(=O)NC(c3ccccc3)c3ccccc3)cc2C(=O)NCc2ccccc2)cc1` [1-(4-Methoxy-phenyl)-1H-pyrazole-3,5-dicarboxylic acid 3-benzhydryl-amide 5-benzylamide], 2400 nM; in that of `COc1ccc(-n2nc(C(=O)NCc3ccccc3)cc2C(=O)Nc2ccc(C(=O)N3CCCC3)cc2)cc1` [1-(4-Methoxy-phenyl)-1H-pyrazole-3,5-dicarboxylic acid 3-benzylamide 5-{[4-(pyrrolidine-1-carbonyl)-phenyl]-amide}], 26 nM.
`COc1ccc(-n2nc(C(=O)NCc3cccnc3)cc2C(=O)Nc2ccccc2)cc1` [1-(4-Methoxy-phenyl)-1H-pyrazole-3,5-dicarboxylic acid 5-phenylamide 3-[(pyridin-3-ylmethyl)-amide]] returned a Ki of 12 nM. This Ki lies about 2.2-fold lower than the previous one.
The value for `COc1ccc(-n2nc(C(=O)NCC3CCCO3)cc2C(=O)Nc2ccc(C(=O)N3CCCC3)cc2)cc1` (stereo unspecified) [1-(4-Methoxy-phenyl)-1H-pyrazole-3,5-dicarboxylic acid 5-{[4-(pyrrolidine-1-carbonyl)-phenyl]-amide} 3-[(tetrahydro-furan-2-ylmethyl)-amide]] was 331 nM; that for `O=C(NCc1ccccc1)c1cc(C(=O)Nc2ccccc2)n(-c2ccc(Cl)cc2)n1` [X1-(4-Chloro-phenyl)-1H-pyrazole-3,5-dicarboxylic acid 3-benzylamide 5-phenylamide] was 4 nM.

The values above are taken from BindingDB's records for doi:10.1021/jm020112w (Bristol-Myers Squibb, 2002).
